Consider 21 compounds from patent US12358893B2, “Metalloenzyme inhibitor compounds” (Corxel Pharmaceuticals Hong Kong Limited, priority 2019, dated 2025).

Structures are written as SMILES. pIC50: −log10 of the molar value. Where only a bound is given, the exact number is not on record here.

Assay [1] has as its target T1, recombinant human CYP11B2 (Homo sapiens, UniProt P19099).
T1 construct: made in house; host or cells: V79-4 cells (Chinese hamster lung fibroblasts); enzyme-enriched microsomal fraction of the lysate
T1 sequence (P19099 25-503): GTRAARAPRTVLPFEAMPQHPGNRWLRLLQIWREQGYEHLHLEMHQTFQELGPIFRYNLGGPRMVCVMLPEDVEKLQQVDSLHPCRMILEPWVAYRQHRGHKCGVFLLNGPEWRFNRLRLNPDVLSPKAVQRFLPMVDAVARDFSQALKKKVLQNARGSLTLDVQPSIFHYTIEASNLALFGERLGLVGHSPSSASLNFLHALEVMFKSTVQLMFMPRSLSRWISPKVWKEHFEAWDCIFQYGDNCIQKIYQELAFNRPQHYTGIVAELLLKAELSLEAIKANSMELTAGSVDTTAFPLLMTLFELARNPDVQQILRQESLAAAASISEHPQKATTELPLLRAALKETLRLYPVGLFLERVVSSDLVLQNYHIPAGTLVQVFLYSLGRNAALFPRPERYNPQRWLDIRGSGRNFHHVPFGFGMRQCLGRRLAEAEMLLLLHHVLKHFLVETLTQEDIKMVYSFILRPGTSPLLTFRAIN
As to the kind of experiment: CYP11B2 enzyme assay with enzyme enriched microsomes, aldosterone measured by LC-MS. Type of assay: biochemical. The settings on record: microsomes from V79-4 cells; 11-deoxycorticosterone at Km; read-out: hCYP11B2 IC50. Here is the method:
(§1) V79-4 cells expressing recombinant andrenodoxin and andrenodoxin reductase with either recombinant human CYP11B2 or CYP11B1 were prepared according to methods previously described (LaSala et al 2009 Anal Bioch 394:56-61). An enzyme enriched microsomal fraction was prepared from cellular lysates and subsequently used as the enzyme source for determining inhibitor IC50s. The substrate Km values were experimentally determined for 11-deoxycorticosterone (CYP11B2 substrate) and 11-deoxycortisol (CYP11B1 substrate). Enzyme assays for inhibitor screening employed CYP11B2 and CYP11B1 enzyme enriched microsomes and were run at the Km of the respective substrates. Products of the enzyme reactions, aldosterone for CYP11B2 or cortisol for CYP11B1, were measured by LC-MS. Assays were run under conditions of less than 20% substrate turnover. Inhibitor IC50s were generated by determining the product formation in the absence or presence of inhibitor at various concentrations. In the absence of the test compound, the product formed (Pt) in each data set was defined as 100% activity. In the absence of enzyme, the product formed (Pb) in each data set was defined as 0% activity. The percent activity in the presence of each inhibitor was calculated according to the following equation: % activity=(P−Pb)/(Pt−Pb), where P=the product formed in the presence of the inhibitor. The IC50 value was defined as the inhibitor concentration causing a 50% decrease in activity relative to the no inhibitor control reaction.

Assay [2] deals with T2, recombinant human CYP11B1 (Homo sapiens, UniProt P15538).
T2 construct: made in house; host or cells: V79-4 cells (Chinese hamster lung fibroblasts); enzyme-enriched microsomal fraction of the lysate
T2 sequence (P15538 25-503): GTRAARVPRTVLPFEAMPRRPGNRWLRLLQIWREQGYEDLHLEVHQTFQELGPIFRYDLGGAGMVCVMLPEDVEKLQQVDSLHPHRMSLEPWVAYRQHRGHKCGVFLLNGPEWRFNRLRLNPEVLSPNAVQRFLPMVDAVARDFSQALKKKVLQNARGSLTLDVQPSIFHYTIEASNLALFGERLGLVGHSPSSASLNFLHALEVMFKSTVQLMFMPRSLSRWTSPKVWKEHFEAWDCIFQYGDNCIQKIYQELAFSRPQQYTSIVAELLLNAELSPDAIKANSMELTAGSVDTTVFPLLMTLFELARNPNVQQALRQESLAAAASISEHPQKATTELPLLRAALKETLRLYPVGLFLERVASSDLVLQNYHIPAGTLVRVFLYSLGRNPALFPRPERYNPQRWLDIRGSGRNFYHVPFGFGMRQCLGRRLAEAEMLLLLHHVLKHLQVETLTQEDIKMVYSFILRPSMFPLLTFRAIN
As to the kind of experiment: CYP11B1 enzyme assay with enzyme enriched microsomes, cortisol measured by LC-MS. Type of assay: biochemical. Particulars: microsomes from V79-4 cells; 11-deoxycortisol at Km; read-out: hCYP11B1 IC50. As for the experimental part:
as §1

As for `CS(=O)(=O)N(c1ccc2c(c1)ncn2-c1nc2ccc(F)c(F)c2n1C1CC1)S(C)(=O)=O` [Example 30, N-(1′-cyclopropyl-6′,7′-difluoro-1′H-[1,2′-bibenzo[d]imidazol]-5-yl)-N-(methylsulfonyl) methanesulfonamide], the pIC50 in assay [1] is 5.00 to 6.00; in assay [2], < 5.00.

On to `CS(=O)(=O)Nc1ccc2c(c1)ncn2-c1nc2ccc(F)c(F)c2n1C1CC1` [Example 31, N-(1′-cyclopropyl-6′,7′-difluoro-1′H-[1,2′-bibenzo[d]imidazol]-5-yl) methanesulfonamide], for which the pIC50 is 7.00 to 9.00 in assay [1] and < 5.00 in assay [2].

As to `N#Cc1ccc2nc(-n3cnc4cc(F)c(F)cc43)n(C3CC3)c2n1` [Example 32, 3-cyclopropyl-2-(5,6-difluoro-1H-benzo[d]imidazol-1-yl)-3H-imidaz[4,5-b]pyridine-5-carbonitrile], the figures for the pIC50 in assay [1] and in assay [2] were 7.00 to 9.00 and 5.00 to 6.00, respectively.

`CS(=O)(=O)Nc1ccc2ncn(-c3nc4ccc(F)c(F)c4n3C3CC3)c2c1` [Example 33, N-(1′-cyclopropyl-6′,7′-difluoro-1′H-[1,2′-bibenzo[d]imidazol]-6-yl) methanesulfonamide]: the pIC50 in assay [1] was 5.00 to 6.00; in assay [2], < 5.00.

As to `Fc1cc2nc(-n3cnc4ncccc43)n(C3CC3)c2cc1F` [Example 34, 1-(1-cyclopropyl-5,6-difluoro-1H-benzo[d]imidazol-2-yl)-1H-imidazo[4,5-b]pyridine], the pIC50 in assay [1] is 5.00 to 6.00; in assay [2] it was < 5.00.

As to `Fc1cc2nc(-n3cnc4cnccc43)n(C3CC3)c2cc1F` [Example 35, 1-(1-cyclopropyl-5,6-difluoro-1H-benzo[d]imidazol-2-yl)-1H-imidazo[4,5-c]pyridine], the pIC50 in assay [1] is 7.00 to 9.00; in assay [2], 5.00 to 6.00.

Take `Fc1cc2nc(-n3cnc4ccncc43)n(C3CC3)c2cc1F` [Example 36, 3-(1-cyclopropyl-5,6-difluoro-1H-benzo[d]imidazol-2-yl)-3H-imidazo[4,5-c] pyridine]: the negative logarithm of the IC50 (pIC50) in assay [1] is 7.00 to 9.00; in assay [2], 5.00 to 6.00.

With `O=C(O)c1cc2c(cn1)ncn2-c1nc2cc(F)c(F)cc2n1C1CC1` [Example 39, 1-(1-cyclopropyl-5,6-difluoro-1H-benzo[d]imidazol-2-yl)-1H-imidazo[4,5-c]pyridine-6-carboxylic acid], the negative-log IC50 (pIC50) in assay [1] is 5.00 to 6.00; in assay [2] it was < 5.00.

As to `Fc1cc2nc(-n3cnc4cnc(C(F)F)cc43)n(C3CC3)c2cc1F` [Example 40, 1-(1-cyclopropyl-5,6-difluoro-1H-benzo[d]imidazol-2-yl)-6-(difluoromethyl)-1H-imidazo[4,5-c]pyridine], the pIC50 was 7.00 to 9.00 in assay [1] and < 5.00 in assay [2].

Consider `Fc1cc2nc(-n3cnc4cc(C(F)F)ncc43)n(C3CC3)c2cc1F` [Example 41, 3-(1-cyclopropyl-5,6-difluoro-1H-benzo[d]imidazol-2-yl)-6-(difluoromethyl)-3H-imidazo[4,5-c]pyridine], for which the results for the pIC50 in assay [1] and in assay [2] were 7.00 to 9.00 and 5.00 to 6.00, respectively.

On to `N#Cc1ccc2nc(-n3cnc4ccncc43)n(C3CC3)c2c1` [Example 42, 1-cyclopropyl-2-(3H-imidazo[4,5-c]pyridin-3-yl)-1H-benzo[d]imidazole-6-carbonitrile], for which the figures for the pIC50 in assay [1] and in assay [2] were 7.00 to 9.00 and < 5.00, respectively.

Turning to `N#Cc1ccc2nc(-n3cnc4cnccc43)n(C3CC3)c2c1` [Example 43, 1-cyclopropyl-2-(1H-imidazo[4,5-c]pyridin-1-yl)-1H-benzo[d]imidazole-6-carbonitrile], the pIC50 in assay [1] was 7.00 to 9.00; in assay [2] it was < 5.00.

As for `O=C(O)c1ccc2c(c1)ncn2-c1nc2cc(F)c(F)cc2n1C1CC1` [Example 44, 1′-cyclopropyl-5′,6′-difluoro-1′H-[1,2′-bibenzo[d]imidazole]-5-carboxylic acid], the pIC50 in assay [1] was 5.00 to 6.00; in assay [2], < 5.00.

Consider `CS(=O)(=O)Nc1ccc2ncn(-c3nc4cc(F)c(F)cc4n3C3CC3)c2c1` [Example 45, N-(1′-cyclopropyl-5′,6′-difluoro-1′H-[1,2′-bibenzo[d]imidazol]-6-yl) methanesulfonamide], for which the results for the negative-log IC50 (pIC50) in assay [1] and in assay [2] were 5.00 to 6.00 and < 5.00, respectively.

In the case of `CS(=O)(=O)Nc1ccc2c(c1)ncn2-c1nc2cc(F)c(F)cc2n1C1CC1` [Example 46, N-(1′-cyclopropyl-5′,6′-difluoro-1′H-[1,2′-bibenzo[d]imidazol]-5-yl) methanesulfonamide], the pIC50 in assay [1] was 6.00 to 7.00; in assay [2], < 5.00.

`CS(=O)(=O)Nc1ccc2c(c1)ncn2-c1nc2ccc(C#N)cc2n1C1CC1` [Example 47, N-(6′-cyano-1′-cyclopropyl-1′H-[1,2′-bibenzo[d]imidazol]-5-yl) methanesulfonamide]: the pIC50 in assay [1] was 6.00 to 7.00; in assay [2] it was < 5.00.

In the case of `CS(=O)(=O)Nc1ccc2ncn(-c3nc4ccc(C#N)cc4n3C3CC3)c2c1` [Example 48, N-(6′-cyano-1′-cyclopropyl-1′H-[1,2′-bibenzo[d]imidazol]-6-yl) methanesulfonamide], the pIC50 in assay [1] was 5.00 to 6.00; in assay [2], < 5.00.

As to `N#Cc1ccc2nc(-n3cnc4cc(OC(F)F)ccc43)n(C3CC3)c2c1` [Example 49, 1′-cyclopropyl-5-(difluoromethoxy)-1′H-[1,2′-bibenzo[d]imidazole]-6′-carbonitrile], the pIC50 is 7.00 to 9.00 in assay [1] and 6.00 to 7.00 in assay [2].

Take `N#Cc1ccc2nc(-n3cnc4ccc(OC(F)F)cc43)n(C3CC3)c2c1` [Example 50, 1′-cyclopropyl-6-(difluoromethoxy)-1′H-[1,2′-bibenzo[d]imidazole]-6′-carbonitrile]: the results for the pIC50 in assay [1] and in assay [2] were 7.00 to 9.00 and 5.00 to 6.00, respectively.

With `Fc1cc2nc(-n3cnc4cc(OC(F)F)ccc43)n(C3CC3)c2cc1F` [Example 52, 1′-cyclopropyl-5-(difluoromethoxy)-5′,6′-difluoro-1′H-1,2′-bibenzo[d]imidazole], the pIC50 in assay [1] was 7.00 to 9.00; in assay [2] it was 6.00 to 7.00.

In the case of `Fc1cc2nc(-n3cnc4ccc(OC(F)F)cc43)n(C3CC3)c2cc1F` [Example 53, 1′-cyclopropyl-6-(difluoromethoxy)-5′,6′-difluoro-1′H-1,2′-bibenzo[d]imidazole], the negative-log IC50 (pIC50) in assay [1] is 7.00 to 9.00; in assay [2], 5.00 to 6.00.

For orientation: pIC50 means −log10 of the IC50, conventionally taken in molar units.
